In the supplement of paper PMC11208160:

Assay: recombinant UMI read abundance after kanamycin selection (control-corrected) (log10(CPM+1)); higher = more efficient recombination; extreme values may be limits of the assay; sequences stand for … in AGTGCAGAGAAAATCGGCCAGTTTTCTCTGCCTGCAGTCCGCATGCCGTGGGACCCCTTGGGTTCTAACCTGTTGCCTAGATTTATGCAGCGGACTGCCTTTCTCCCAAAGTGATAAACCGG…AGGTTGGTTTCACT; site = the 11-nt donor
How it was run: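 Two replicates each of selected and unselected plating were used in this pooled Escherichia coli screen of donor and donor-binding-loop pairs for the IS621 bridge recombinase. Selection was with IPTG (0.07 mM) and kanamycin. Counts of recombinant UMIs, amplified across the donor–target junction, were converted to CPM, averaged, scaled by control-derived factors and reported as log10(CPM+1).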
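Also: IS621 bridge recombinase in Escherichia coli cells against a fixed T5 target plasmid.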

Row | Sequence | recombinant UMI read abundance (log10)
1 | CCAATATCATGGACCGGTTTTCCCGGTAATCCGTATTTGTC (site CCGATATCTGA) | 0
2 | CCAATATCATGGACCGGTTTTCCCGGTAATCCGTATTTGTC (site CCTATATCTGA) | 1.27
3 | CCACACACATGGACCGGTTTTCCCGGTAATCCGTATTTGTA (site CCACACACTTA) | 1.15
4 | CCACACACATGGACCGGTTTTCCCGGTAATCCGTATTTGTA (site CCCCACACTTA) | 0.0104
5 | CCACACACATGGACCGGTTTTCCCGGTAATCCGTATTTGTA (site CCGCACACTTA) | 0.0104
6 | CCACACACATGGACCGGTTTTCCCGGTAATCCGTATTTGTA (site CCTCACACTTA) | 0.0109
7 | CCACATTCATGGACCGGTTTTCCCGGTAATCCGTATTTGAT (site CCACATTCTAT) | 0
8 | CCACCACCATGGACCGGTTTTCCCGGTAATCCGTATTTGTA (site CCACCACCTTA) | 0.00663
9 | CCACGAACATGGACCGGTTTTCCCGGTAATCCGTATTTGCA (site CCACGAACTTG) | 0
10 | CCACGCGCATGGACCGGTTTTCCCGGTAATCCGTATTTGAG (site CCACGCGCTCT) | 0.759
11 | CCAGAATCATGGACCGGTTTTCCCGGTAATCCGTATTTGTG (site CCAGAATCTCA) | 2.13
12 | CCAGCAGCATGGACCGGTTTTCCCGGTAATCCGTATTTGCT (site CAAGCAGCTAG) | 0
13 | CCAGCAGCATGGACCGGTTTTCCCGGTAATCCGTATTTGCT (site CCAGCAGCTAG) | 0.104
14 | CCAGCAGCATGGACCGGTTTTCCCGGTAATCCGTATTTGCT (site CGAGCAGCTAG) | 0
15 | CCAGCAGCATGGACCGGTTTTCCCGGTAATCCGTATTTGCT (site CTAGCAGCTAG) | 0.0142
16 | CCAGCATCATGGACCGGTTTTCCCGGTAATCCGTATTTGAC (site CCAGCATCTGT) | 0
17 | CCAGCATCATGGACCGGTTTTCCCGGTAATCCGTATTTGAC (site CTAGTATCTGT) | 0
18 | CCAGGAGCATGGACCGGTTTTCCCGGTAATCCGTATTTGAT (site CCAGGAGCTAT) | 1.6
19 | CCAGGAGCATGGACCGGTTTTCCCGGTAATCCGTATTTGAT (site CCAGGCGCTAT) | 0.854
20 | CCAGGAGCATGGACCGGTTTTCCCGGTAATCCGTATTTGAT (site CCAGGGGCTAT) | 0.941
21 | CCAGGAGCATGGACCGGTTTTCCCGGTAATCCGTATTTGAT (site CCAGGTGCTAT) | 1.78
22 | CCAGGTACATGGACCGGTTTTCCCGGTAATCCGTATTTGAT (site CCAGGTACTAT) | 0.643
23 | CCAGGTACATGGACCGGTTTTCCCGGTAATCCGTATTTGAT (site CCAGGTCCTAT) | 0
24 | CCAGGTACATGGACCGGTTTTCCCGGTAATCCGTATTTGAT (site CCAGGTGCTAT) | 1.2
25 | CCAGGTACATGGACCGGTTTTCCCGGTAATCCGTATTTGAT (site CCAGGTTCTAT) | 0.478

Row | Sequence | recombinant UMI read abundance (log10)
26 | CCAGGTGCATGGACCGGTTTTCCCGGTAATCCGTATTTGCT (site CCAGGTGCTAA) | 0.208
27 | CCAGGTGCATGGACCGGTTTTCCCGGTAATCCGTATTTGCT (site CCAGGTGCTAC) | 0.00458
28 | CCAGGTGCATGGACCGGTTTTCCCGGTAATCCGTATTTGCT (site CCAGGTGCTAG) | 1.46
29 | CCAGGTGCATGGACCGGTTTTCCCGGTAATCCGTATTTGCT (site CCAGGTGCTAT) | 0.402
30 | CCAGGTGCATGGACCGGTTTTCCCGGTAATCCGTATTTGTT (site CCAGGTGCTAA) | 0.856
31 | CCAGGTGCATGGACCGGTTTTCCCGGTAATCCGTATTTGTT (site CCAGGTGCTAC) | 0.00844
32 | CCAGGTGCATGGACCGGTTTTCCCGGTAATCCGTATTTGTT (site CCAGGTGCTAG) | 1.42
33 | CCAGGTGCATGGACCGGTTTTCCCGGTAATCCGTATTTGTT (site CCAGGTGCTAT) | 1.14
34 | CCAGTATCATGGACCGGTTTTCCCGGTAATCCGTATTTGAC (site CAAGTATCTGT) | 0.983
35 | CCAGTATCATGGACCGGTTTTCCCGGTAATCCGTATTTGAC (site CCAGTATCTGT) | 0.685
36 | CCAGTATCATGGACCGGTTTTCCCGGTAATCCGTATTTGAC (site CGAGTATCTGT) | 0
37 | CCAGTATCATGGACCGGTTTTCCCGGTAATCCGTATTTGAC (site CTAGTATCTGT) | 0.871
38 | CCATACACATGGACCGGTTTTCCCGGTAATCCGTATTTGTT (site CCATACACTAA) | 0.866
39 | CCATATTCATGGACCGGTTTTCCCGGTAATCCGTATTTGAC (site GGGATCGCTAC) | 0.00628
40 | CCATCAGCATGGACCGGTTTTCCCGGTAATCCGTATTTGCT (site CCATCAGCTAG) | 0.375
41 | CCATCAGCATGGACCGGTTTTCCCGGTAATCCGTATTTGCT (site CGATCATCTAG) | 0.145
42 | CCATCATCATGGACCGGTTTTCCCGGTAATCCGTATTTGCA (site CCATCATCTTG) | 0
43 | CCATCATCATGGACCGGTTTTCCCGGTAATCCGTATTTGCA (site CGATCATCTAG) | 0
44 | CCATCCCCATGGACCGGTTTTCCCGGTAATCCGTATTTGAT (site CCATCCCCTAT) | 0.0114
45 | CCATTATCATGGACCGGTTTTCCCGGTAATCCGTATTTGAC (site CCATTATCTGT) | 0.804
46 | CCCAAATCATGGACCGGTTTTCCCGGTAATCCGTATTTGTC (site CCCAAATCTGA) | 1.93
47 | CCCAAATCATGGACCGGTTTTCCCGGTAATCCGTATTTGTC (site CCCACATCTGA) | 0
48 | CCCAAATCATGGACCGGTTTTCCCGGTAATCCGTATTTGTC (site CCCAGATCTGA) | 0
49 | CCCAAATCATGGACCGGTTTTCCCGGTAATCCGTATTTGTC (site CCCATATCTGA) | 0
50 | CCCAAGCCATGGACCGGTTTTCCCGGTAATCCGTATTTGCC (site CCCAAGCCTGG) | 0

Row | Sequence | recombinant UMI read abundance (log10)
51 | CCCAAGCCATGGACCGGTTTTCCCGGTAATCCGTATTTGCC (site CCCCAGCCTGG) | 0
52 | CCCAAGCCATGGACCGGTTTTCCCGGTAATCCGTATTTGCC (site CCCGAGCCTGG) | 0
53 | CCCAAGCCATGGACCGGTTTTCCCGGTAATCCGTATTTGCC (site CCCTAGCCTGG) | 0.398
54 | CCCAGCACATGGACCGGTTTTCCCGGTAATCCGTATTTGAA (site CCCAGCACTTT) | 0.515
55 | CCCAGCTCATGGACCGGTTTTCCCGGTAATCCGTATTTGCA (site CCCAGCTCTTG) | 2.3
56 | CCCATACCATGGACCGGTTTTCCCGGTAATCCGTATTTGTG (site CCCATACCTCA) | 0.0125
57 | CCCATATCATGGACCGGTTTTCCCGGTAATCCGTATTTGGC (site CCCATATCTGA) | 0
58 | CCCATATCATGGACCGGTTTTCCCGGTAATCCGTATTTGGC (site CCCATATCTGC) | 0
59 | CCCATATCATGGACCGGTTTTCCCGGTAATCCGTATTTGGC (site CCCATATCTGG) | 0
60 | CCCATATCATGGACCGGTTTTCCCGGTAATCCGTATTTGGC (site CCCATATCTGT) | 0.0107
61 | CCCATCTCATGGACCGGTTTTCCCGGTAATCCGTATTTGCT (site CCCATCTCTAG) | 1.63
62 | CCCATCTCATGGACCGGTTTTCCCGGTAATCCGTATTTGTC (site CCCATATCTGA) | 0
63 | CCCATCTCATGGACCGGTTTTCCCGGTAATCCGTATTTGTC (site CCCATCTCTGA) | 1.35
64 | CCCATCTCATGGACCGGTTTTCCCGGTAATCCGTATTTGTC (site CCCATGTCTGA) | 0
65 | CCCATCTCATGGACCGGTTTTCCCGGTAATCCGTATTTGTC (site CCCATTTCTGA) | 0
66 | CCCCAAGCATGGACCGGTTTTCCCGGTAATCCGTATTTGGC (site CCCCAAGCTGC) | 0
67 | CCCCACACATGGACCGGTTTTCCCGGTAATCCGTATTTGCA (site CCCCACACTTA) | 0.0196
68 | CCCCACACATGGACCGGTTTTCCCGGTAATCCGTATTTGCA (site CCCCACACTTC) | 0.0185
69 | CCCCACACATGGACCGGTTTTCCCGGTAATCCGTATTTGCA (site CCCCACACTTG) | 1.88
70 | CCCCACACATGGACCGGTTTTCCCGGTAATCCGTATTTGCA (site CCCCACACTTT) | 0.16
71 | CCCCACGCATGGACCGGTTTTCCCGGTAATCCGTATTTGGC (site CCCCACGCTGC) | 0.767
72 | CCCCACGCATGGACCGGTTTTCCCGGTAATCCGTATTTGTA (site CCCCACACTTA) | 0.643
73 | CCCCACGCATGGACCGGTTTTCCCGGTAATCCGTATTTGTA (site CCCCACCCTTA) | 0.00405
74 | CCCCACGCATGGACCGGTTTTCCCGGTAATCCGTATTTGTA (site CCCCACGCTTA) | 0.81
75 | CCCCACGCATGGACCGGTTTTCCCGGTAATCCGTATTTGTA (site CCCCACTCTTA) | 0.923
